pIC50: −log10 of the molar value.
These molecules were tested against EZH2 (Homo sapiens, UniProt Q15910) (assay: EZH2 assay: rPRC2 with biotinylated oligonucleosome substrates and 3H SAM, FlashPlate scintillation counting, IC50). Details: not given.
Format: biochemical
Summary of the method: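 rPRC2 (2 nM EZH2) pre-incubated 20 min with compound (80 to 0.16 uM, ten 2-fold steps), then 60 min reaction with 0.2 uM 3H SAM, 0.2 uM biotinylated oligonucleosomes, 3.6 uM H3K27me3 peptide in Tris pH 8.5. SAH/EDTA quench; 4-parameter IC50 fit.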

EZH2, sequence (Q15910 whole entry): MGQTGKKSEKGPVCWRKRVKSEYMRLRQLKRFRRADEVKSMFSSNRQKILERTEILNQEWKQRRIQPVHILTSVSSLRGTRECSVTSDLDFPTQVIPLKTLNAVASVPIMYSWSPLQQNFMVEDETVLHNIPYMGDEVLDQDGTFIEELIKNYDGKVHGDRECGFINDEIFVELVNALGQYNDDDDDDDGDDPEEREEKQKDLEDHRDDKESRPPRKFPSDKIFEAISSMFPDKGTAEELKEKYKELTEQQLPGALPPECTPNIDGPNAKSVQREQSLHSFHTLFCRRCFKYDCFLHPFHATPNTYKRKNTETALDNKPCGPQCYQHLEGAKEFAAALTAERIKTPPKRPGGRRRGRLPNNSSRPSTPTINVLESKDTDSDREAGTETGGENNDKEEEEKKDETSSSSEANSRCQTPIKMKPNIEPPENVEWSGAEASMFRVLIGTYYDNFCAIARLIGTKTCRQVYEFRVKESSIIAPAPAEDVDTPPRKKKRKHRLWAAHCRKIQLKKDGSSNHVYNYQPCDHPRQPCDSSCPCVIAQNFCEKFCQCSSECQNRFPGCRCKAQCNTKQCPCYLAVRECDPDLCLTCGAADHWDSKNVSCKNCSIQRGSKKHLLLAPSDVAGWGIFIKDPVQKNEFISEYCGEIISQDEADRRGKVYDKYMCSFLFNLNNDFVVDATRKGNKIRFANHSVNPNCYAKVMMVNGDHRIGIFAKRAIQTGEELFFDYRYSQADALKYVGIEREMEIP
EZH2, sequence (O75530 whole entry partner): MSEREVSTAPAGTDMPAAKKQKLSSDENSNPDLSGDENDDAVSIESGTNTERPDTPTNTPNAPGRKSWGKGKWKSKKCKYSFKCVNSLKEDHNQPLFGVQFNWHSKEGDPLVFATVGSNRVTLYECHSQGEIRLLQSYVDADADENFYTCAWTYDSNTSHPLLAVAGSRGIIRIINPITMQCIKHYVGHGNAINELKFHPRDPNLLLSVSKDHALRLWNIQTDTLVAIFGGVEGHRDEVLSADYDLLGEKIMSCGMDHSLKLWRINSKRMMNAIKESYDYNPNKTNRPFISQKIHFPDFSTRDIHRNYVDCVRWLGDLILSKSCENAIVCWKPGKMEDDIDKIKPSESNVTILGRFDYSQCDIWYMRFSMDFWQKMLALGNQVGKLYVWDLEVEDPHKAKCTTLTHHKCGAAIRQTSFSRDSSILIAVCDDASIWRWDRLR
EZH2, sequence (Q15022 whole entry partner): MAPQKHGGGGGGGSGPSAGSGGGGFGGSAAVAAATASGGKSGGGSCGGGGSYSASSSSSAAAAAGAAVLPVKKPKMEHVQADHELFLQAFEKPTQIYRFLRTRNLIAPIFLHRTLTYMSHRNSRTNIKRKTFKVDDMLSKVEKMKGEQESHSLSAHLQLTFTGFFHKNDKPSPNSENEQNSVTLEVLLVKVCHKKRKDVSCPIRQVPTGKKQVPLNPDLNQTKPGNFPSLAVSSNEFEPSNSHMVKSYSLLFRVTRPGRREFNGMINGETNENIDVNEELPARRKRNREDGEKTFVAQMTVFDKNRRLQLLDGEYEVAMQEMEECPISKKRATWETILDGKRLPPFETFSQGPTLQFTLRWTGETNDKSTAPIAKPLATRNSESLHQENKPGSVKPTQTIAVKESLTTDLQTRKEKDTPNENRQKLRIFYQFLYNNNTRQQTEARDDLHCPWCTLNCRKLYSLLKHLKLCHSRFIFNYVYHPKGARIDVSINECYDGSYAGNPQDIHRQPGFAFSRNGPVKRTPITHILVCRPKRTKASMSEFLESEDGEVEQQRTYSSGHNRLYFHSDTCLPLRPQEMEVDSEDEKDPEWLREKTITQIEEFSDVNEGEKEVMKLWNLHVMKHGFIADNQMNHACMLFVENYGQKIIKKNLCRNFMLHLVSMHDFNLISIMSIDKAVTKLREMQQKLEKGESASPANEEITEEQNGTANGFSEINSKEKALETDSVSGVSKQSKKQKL

Row | Compound | pIC50
1 | CC1(C)CC(NC(=O)c2ccc(Oc3ccccc3C#N)c(Cl)c2)CC(C)(C)N1[O] [Compound I-402] | < 4.10

Same assay, conditions: rPRC2, biotinylated oligonucleosome substrates, 3H SAM; read-out: EZH2 IC50

Row | Compound | pIC50
2 | N#Cc1c(Oc2ccc(C(=O)NC3CCNCC3)cc2Cl)cccc1-c1cn[nH]c1 [Compound I-373] | < 4.10
3 | CC1(C)CC(NC(=O)c2ccc(Oc3cccc(-c4cnn(CC(=O)O)c4)c3C#N)c(Cl)c2)CC(C)(C)N1 [Compound I-374] | > 5.30
4 | CC1(C)CC(NC(=O)c2ccc(-c3ccc4cnccc4c3)c(Cl)c2)CC(C)(C)N1 [Compound I-376] | 4.10 to 4.70
5 | CC1(C)CC(NC(=O)c2ccc(-c3ccc4ccncc4c3)c(Cl)c2)CC(C)(C)N1 [Compound I-377] | 4.70 to 5.30
6 | N#Cc1ccccc1Oc1ccc(C(=O)N[C@@H]2C[C@H]3CC[C@@H](C2)N3)cc1Cl [Compound I-380] | 4.10 to 4.70
7 | CC1(C)CC(NC(=O)c2ccc(OC3CCNCC3)c(Cl)c2)CC(C)(C)N1 [Compound I-382] | < 4.10
8 | Cc1cccc(Oc2ccc(C(=O)NC3CC(C)(C)NC(C)(C)C3)cc2Cl)c1-c1ccncc1 [Compound I-383] | 4.10 to 4.70
9 | CC1(C)CC(NC(=O)c2ccc(N3CCOc4ccccc43)c(Cl)c2)CC(C)(C)N1 [Compound I-384] | 4.10 to 4.70
10 | CC1(C)CC(NC(=O)c2ccc(Oc3cccc(-c4cnn(CC(N)=O)c4)c3C#N)c(Cl)c2)CC(C)(C)N1 [Compound I-386] | > 5.30
11 | CNC(=O)Cn1cc(-c2cccc(Oc3ccc(C(=O)NC4CC(C)(C)NC(C)(C)C4)cc3Cl)c2C#N)cn1 [Compound I-387] | > 5.30
12 | CC1(C)CC(NC(=O)c2ccc(Oc3ccccc3C(N)=O)c(Br)c2)CC(C)(C)N1 [Compound I-388] | 4.70 to 5.30
13 | COC(=O)C1CC(NC(=O)c2ccc(Oc3ccccc3C#N)c(Cl)c2)CCN1 (stereo not drawn) [Compound I-389] | < 4.10
14 | Cn1cncc1COc1ccc(C(=O)NC2CC(C)(C)NC(C)(C)C2)cc1Cl [Compound I-390] | < 4.10
15 | CC1(C)CC(NC(=O)c2ccc(Oc3cccc(N4CCOCC4)c3C#N)c(Cl)c2)CC(C)(C)N1 [Compound I-391] | > 5.30
16 | CC1(C)CC(NC(=O)c2ccc(OC3CNC3)c(Cl)c2)CC(C)(C)N1 [Compound I-392] | < 4.10
17 | CC1(C)CC(NC(=O)c2ccc(OC3CCCNC3)c(Cl)c2)CC(C)(C)N1 (stereo not drawn) [Compound I-393] | < 4.10
18 | CC1(C)CC(NC(=O)c2ccc(Oc3cccc(C(N)=O)c3C#N)c(Cl)c2)CC(C)(C)N1 [Compound I-394] | 4.70 to 5.30
19 | CC1(C)CC(NC(=O)c2ccc(N3CC(c4ccccc4)CC3=O)c(Cl)c2)CC(C)(C)N1 (stereo not drawn) [Compound I-396] | < 4.10
20 | CC(O)c1cccc(Oc2ccc(C(=O)NC3CC(C)(C)NC(C)(C)C3)cc2Cl)c1Br (stereo not drawn) [Compound I-399] | > 5.30
21 | CC(O)c1cccc(Oc2ccc(C(=O)NC3CC(C)(C)NC(C)(C)C3)cc2Cl)c1-c1ccncc1 (stereo not drawn) [Compound I-400] | 4.70 to 5.30
22 | N#Cc1ccccc1Oc1ccc(C(=O)NC2CCNC(=O)C2)cc1Cl (stereo not drawn) [Compound I-403] | < 4.10
23 | CC1(C)CNCCC1NC(=O)c1ccc(Oc2ccccc2C#N)c(Cl)c1 (stereo not drawn) [Compound I-406] | < 4.10
24 | N#Cc1c(Br)cccc1Oc1ccc(C(=O)NC2CCNCC2)cc1Cl [Compound I-407] | < 4.10
25 | N#Cc1ccccc1Oc1ccc(C(=O)N[C@H]2C[C@H]3CC[C@@H](C2)N3)cc1Cl [Compound I-408] | < 4.10
26 | CC1(C)CC(NC(=O)c2ccc(Oc3ccccc3C#N)c(Cl)c2)CC(c2ccccc2)N1 (stereo not drawn) [Compound I-409] | 4.10 to 4.70

Row | Compound | pIC50
27 | CC1(C)CC(NC(=O)c2ccc(OC[C@@H]3CCCN3)c(Cl)c2)CC(C)(C)N1 [Compound I-410] | < 4.10
28 | CC1(C)CC(NC(=O)c2ccc(OC3CCNC3)c(Cl)c2)CC(C)(C)N1 (stereo not drawn) [Compound I-411] | < 4.10
29 | CC1(C)CC(NC(=O)c2ccc3c(c2)Cc2ccccc2O3)CC(C)(C)N1 [Compound I-412] | < 4.10
30 | CC1(C)CC(NC(=O)c2ccc(N3CCOC(c4ccccc4)C3)c(Cl)c2)CC(C)(C)N1 (stereo not drawn) [Compound I-416] | < 4.10
31 | CC1(C)CC(NC(=O)c2ccc(Oc3ccccc3C#N)c(Cl)c2)C(F)(F)C(C)(C)N1 (stereo not drawn) [Compound I-418] | 4.10 to 4.70
32 | CC1(C)CC(NC(=O)c2ccc(Oc3ccccc3C#N)c(Cl)c2)CC(C(=O)O)N1 (stereo not drawn) [Compound I-419] | < 4.10
33 | COC(C)c1cccc(Oc2ccc(C(=O)NC3CC(C)(C)NC(C)(C)C3)cc2Cl)c1C#N (stereo not drawn) [Compound I-420] | > 5.30
34 | CC1(C)CC(NC(=O)c2ccc(OC(C#N)c3ccccc3)c(Cl)c2)CC(C)(C)N1 (stereo not drawn) [Compound I-421] | < 4.10
35 | CC(C)NCc1cccc(Oc2ccc(C(=O)NC3CC(C)(C)NC(C)(C)C3)cc2Cl)c1 [Compound I-422] | 4.10 to 4.70
36 | CC1(C)CC(NC(=O)c2ccc(Oc3ccccc3C#N)c(Cl)c2)CC(C)(C)N1CC(=O)O [Compound I-424] | < 4.10
37 | CNCc1cccc(Oc2ccc(C(=O)NC3CC(C)(C)NC(C)(C)C3)cc2Cl)c1 [Compound I-425] | < 4.10
38 | CC(c1ccccc1)c1ccc(C(=O)NC2CC(C)(C)NC(C)(C)C2)cc1 (stereo not drawn) [Compound I-426] | < 4.10
39 | CC(=O)NCc1cccc(Oc2ccc(C(=O)NC3CC(C)(C)NC(C)(C)C3)cc2Cl)c1 [Compound I-430] | > 5.30
40 | CC1(C)CC(NC(=O)c2ccc(C(O)c3ccccc3)cc2)CC(C)(C)N1 (stereo not drawn) [Compound I-432] | < 4.10
41 | CC1(C)CC(NC(=O)c2ccc(Oc3ccccc3C#N)c(Cl)c2)CC(C)(C)C1 [Compound I-433] | < 4.10
42 | CC1(C)CC(NC(=O)c2ccc(Oc3ccccc3C#N)c(Cl)c2)C(F)C(C)(C)N1 (stereo not drawn) [Compound I-434] | 4.10 to 4.70
43 | CC1(C)CC(NC(=O)c2cnc(Oc3cccc(-c4cn[nH]c4)c3C#N)c(Cl)c2)CC(C)(C)N1 [Compound I-435] | > 5.30
44 | CC1(C)CC(NC(=O)c2ccc(C3=NCC(=O)Nc4ccccc43)cc2)CC(C)(C)N1 [Compound I-436] | < 4.10
45 | CC1(C)CC(NC(=O)c2ccc(C3(c4ccccc4)CC3)cc2)CC(C)(C)N1 [Compound I-437] | < 4.10
46 | CC1(C)CC(NC(=O)N2CCN(Cc3ccccc3C#N)CC2)CC(C)(C)N1 [Compound I-438] | < 4.10
47 | CC1(C)CC(NC(=O)c2ccc(Oc3cccc(-c4cn[nH]c4)c3C#N)c(C3CC3)c2)CC(C)(C)N1 [Compound I-439] | > 5.30
48 | CC1(C)CC(NC(=O)c2ccc(N3CCOc4ccccc43)cc2)CC(C)(C)N1 [Compound I-440] | < 4.10
49 | CC1(C)CC(NC(=O)N2CCC(Oc3ccccc3C#N)CC2)CC(C)(C)N1 [Compound I-442] | < 4.10
50 | CNC(C)c1cccc(Oc2ccc(C(=O)NC3CC(C)(C)NC(C)(C)C3)cc2Cl)c1 (stereo not drawn) [Compound I-443] | 4.70 to 5.30
51 | CC1(C)CC(NC(=O)c2ccc(Oc3cccc(CC#N)c3-c3cncnc3)c(Cl)c2)CC(C)(C)N1 [Compound I-444] | > 5.30

Row | Compound | pIC50
52 | CC1(C)CC(NC(=O)c2ccc(Oc3cccc(-c4ncccn4)c3C#N)c(Cl)c2)CC(C)(C)N1 [Compound I-445] | > 5.30
53 | CC1(C)CC(NC(=O)c2ccc(Oc3cccc(CN4CCCCC4=O)c3)c(Cl)c2)CC(C)(C)N1 [Compound I-446] | 4.70 to 5.30
54 | CC1(C)CC(NC(=O)c2ccc(Oc3cccc(CN4CCCC4=O)c3)c(Cl)c2)CC(C)(C)N1 [Compound I-447] | 4.70 to 5.30
55 | CC1(C)CC(NC(=O)N2CCN(Cc3ccccc3C#N)C(=O)C2)CC(C)(C)N1 [Compound I-448] | < 4.10
56 | CC1(C)CC(C(=O)Nc2ccc(Oc3cccc(-c4cn[nH]c4)c3C#N)c(Cl)c2)CC(C)(C)N1 [Compound I-449] | 4.70 to 5.30
57 | CC1(C)CC(NC(=O)c2ccc(OCC3CCCCN3)c(Cl)c2)CC(C)(C)N1 (stereo not drawn) [Compound I-450] | < 4.10
58 | CC1(C)CC(NC(=O)c2ccc(Oc3cccc(CC#N)c3)c(Cl)c2)CC(C)(C)N1 [Compound I-451] | > 5.30
59 | CC1(C)CC(NC(=O)c2ccc(Oc3ccccc3C#N)c(Cl)c2)CC(C)(C)N1CC(N)=O [Compound I-452] | < 4.10
60 | COCc1cccc(Oc2ccc(C(=O)NC3CC(C)(C)NC(C)(C)C3)cc2Cl)c1C#N [Compound I-453] | > 5.30
61 | CC(c1ccccc1C#N)N1CCN(C(=O)NC2CC(C)(C)NC(C)(C)C2)CC1 (stereo not drawn) [Compound I-454] | < 4.10
62 | CC(O)c1ccccc1Oc1ccc(C(=O)NC2CC(C)(C)NC(C)(C)C2)cc1Cl (stereo not drawn) [Compound I-455] | 4.70 to 5.30
63 | CC1(C)CC(C#N)(NC(=O)c2ccc(Oc3cccc(-c4ccnnc4)c3C#N)c(Cl)c2)CC(C)(C)N1 [Compound I-456] | > 5.30
64 | CC1(C)CC(NC(=O)c2ccc(O[C@H]3CCNC3=O)c(Cl)c2)CC(C)(C)N1 [Compound I-457] | < 4.10
65 | CNC(=O)Cc1cccc(Oc2ccc(C(=O)NC3CC(C)(C)NC(C)(C)C3)cc2Cl)c1C#N [Compound I-458] | > 5.30
66 | CC1(C)CC(NC(=O)c2ccc(Oc3ccccc3C#N)c(Cl)c2)CC(C)(C)N1CCO [Compound I-459] | > 5.30
67 | N#Cc1ccccc1Oc1ccc(C(=O)NC2CCN(CCN)CC2)cc1Cl [Compound I-460] | < 4.10
68 | CC1CC(NC(=O)c2ccc(Oc3ccccc3C#N)c(Cl)c2)CC(C)(C)N1 (stereo not drawn) [Compound I-461] | 4.70 to 5.30
69 | CC1(C)CC(NC(=O)c2ccc(Oc3cccc(C(C)(C)C#N)c3)c(Cl)c2)CC(C)(C)N1 [Compound I-462] | 4.10 to 4.70
70 | Cc1noc(C)c1-c1cccc(Oc2ccc(C(=O)NC3CC(C)(C)NC(C)(C)C3)cc2Cl)c1C#N [Compound I-463] | > 5.30
71 | CN(C)C(=O)Cc1cccc(Oc2ccc(C(=O)NC3CC(C)(C)NC(C)(C)C3)cc2Cl)c1C#N [Compound I-464] | < 4.10
72 | CN1CCC(NC(=O)c2ccc(Oc3cccc(-c4ccnnc4)c3C#N)c(Cl)c2)CC1 [Compound I-465] | < 4.10
73 | CC1(C)CC(NC(=O)N2CCC(Oc3ccccc3)C2)CC(C)(C)N1 (stereo not drawn) [Compound I-466] | < 4.10
74 | CC1CC(NC(=O)c2ccc(Oc3ccccc3C#N)c(Cl)c2)CC(C)N1 (stereo not drawn) [Compound I-467] | 4.10 to 4.70
75 | CC1(C)CC(NC(=O)c2ccc(Oc3cccc(CC(N)=O)c3C#N)c(Cl)c2)CC(C)(C)N1 [Compound I-469] | > 5.30

Source: patent publication US20130310379A1, “MODULATORS OF METHYL MODIFYING ENZYMES, COMPOSITIONS AND USES THEREOF” (CONSTELLATION PHARMACEUTICALS, priority 2010, published 2013)
